According to PubChem BioAssay (NCI):
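Grown in 96-well plates, cells were treated for 48 hours with each compound at five concentrations. Insufficient inhibition: endpoint recorded as highest concentration tested. GI50 is the concentration that inhibits growth by half. TGI denotes the concentration required for complete inhibition of growth.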

What was measured:
Assay in all cases: growth of human tumour cells (NCI), 48 h
DU-145 prostate = test system: DU-145 prostate
SK-MEL-28 melanoma = test system: SK-MEL-28 melanoma
UO-31 renal = test system: UO-31 renal
RPMI-8226 leukemia = test system: RPMI-8226 leukemia
IGROV1 ovarian = test system: IGROV1 ovarian
OVCAR-5 ovarian = test system: OVCAR-5 ovarian
SF-295 CNS = test system: SF-295 CNS
SK-OV-3 ovarian = test system: SK-OV-3 ovarian
NCI-H226 lung = test system: NCI-H226 lung
T-47D breast = test system: T-47D breast

Row | SMILES | TGI (DU-145 prostate) [µM] | TGI (SK-MEL-28 melanoma) [µM] | TGI (UO-31 renal) [µM] | TGI (RPMI-8226 leukemia) [µM] | TGI (IGROV1 ovarian) [µM] | TGI (OVCAR-5 ovarian) [µM] | TGI (SF-295 CNS) [µM] | TGI (SK-OV-3 ovarian) [µM] | TGI (NCI-H226 lung) [µM] | TGI (T-47D breast) [µM] | GI50 (SK-MEL-28 melanoma) [µM] | GI50 (RPMI-8226 leukemia) [µM] | GI50 (DU-145 prostate) [µM] | GI50 (UO-31 renal) [µM] | GI50 (NCI-H226 lung) [µM] | GI50 (T-47D breast) [µM] | GI50 (IGROV1 ovarian) [µM] | GI50 (OVCAR-5 ovarian) [µM] | GI50 (SF-295 CNS) [µM] | GI50 (SK-OV-3 ovarian) [µM]
1 | CC(C)(C)n1c(=O)n2n(c1=O)Cc1cccc3cccc(c13)C2 | > 100 | 58.8 | 53.1 | 71.6 | 38.5 | 35.1 | 54.2 | 93.3 | – | – | – | – | – | – | – | – | – | – | – | –
2 | COc1ccccc1C1C(Cl)C(=O)N1n1cnc2ccccc2c1=O (configuration not stated) | – | > 100 | > 100 | > 100 | > 100 | > 100 | > 100 | > 100 | > 100 | – | – | – | – | – | – | – | – | – | – | –
3 | CCN(CC)C(=O)Cn1c(-c2ccccc2)cc2ccccc21 | > 100 | > 100 | 64.5 | – | > 100 | > 100 | – | > 100 | > 100 | > 100 | – | – | – | – | – | – | – | – | – | –
4 | O=C(CC(CC(=O)Oc1c(Br)cc(Br)cc1C(=O)O)C(=O)Oc1c(Br)cc(Br)cc1C(=O)O)Oc1c(Br)cc(Br)cc1C(=O)O | – | > 100 | > 100 | > 100 | 87.3 | > 100 | > 100 | > 100 | 57 | – | – | – | – | – | – | – | – | – | – | –
5 | O=C(c1ccccc1)c1ccc(N2C(=O)/C(=C/Cc3ccco3)N=C2c2ccccc2)c(N2C(=O)/C(=C/Cc3ccco3)N=C2c2ccccc2)c1 | 96.6 | > 100 | > 100 | 91.3 | > 100 | > 100 | > 100 | 83 | – | > 100 | – | – | – | – | – | – | – | – | – | –
6 | C(/C=C/c1ccccc1)=Nc1ccc2c(c1)Cc1ccccc1-2 | > 100 | > 100 | > 100 | – | > 100 | > 100 | > 100 | – | > 100 | > 100 | – | – | – | – | – | – | – | – | – | –
7 | C=C(C)C(=O)O[C@H]1CC2=C[C@@H](C[C@@]3(C)O[C@@H]3[C@H]3OC(=O)C(=C)[C@@H]31)OC2=O | – | 3.61 | 13.8 | 26.3 | 9.46 | 12.2 | 11.9 | 34.9 | 30.7 | – | 1.24 | 0.915 | – | – | – | – | – | – | – | –
8 | CCOP(=O)(C=C=C1CCC2[C@@H]3CCc4cc(OC)ccc4C3CC[C@]12C)OCC (some centres not stated) | 30 | 23.9 | – | – | 23.6 | 31.4 | 19.7 | 31.8 | 21.6 | 26.6 | – | – | – | – | – | – | – | – | – | –
9 | c1ccc2c(c1)NCCC(=NC1CCCCC1)N2 | > 100 | > 100 | > 100 | > 100 | > 100 | > 100 | > 100 | > 100 | > 100 | – | – | – | – | – | – | – | – | – | – | –
10 | Clc1ccc(Nc2nnc(CCCCCCCCc3nnc(Nc4ccc(Cl)cc4)o3)o2)cc1 | > 100 | > 100 | > 100 | 79.7 | > 100 | > 100 | > 100 | > 100 | > 100 | – | – | – | – | – | – | – | – | – | – | –
11 | CCCCCC1CC=CC(=O)O1 (configuration not stated) | > 100 | 18.5 | 24 | 12.4 | 17.7 | 21.4 | 35.6 | 36.9 | – | 62.4 | – | – | – | – | – | – | – | – | – | –
12 | CC(C)(C)OC(=O)N[C@H]1CC(O)c2ccccc2N(CC(=O)O)C1=O (some centres not stated) | – | > 100 | > 100 | – | > 100 | – | > 100 | > 100 | > 100 | – | – | – | – | – | – | – | – | – | – | –
13 | Cc1nc2c(c(=O)[nH]1)S/C(=C(/C#N)c1nc3ccccc3[nH]1)N2c1ccccc1 | – | > 100 | > 100 | > 100 | > 100 | > 100 | > 100 | > 100 | – | – | – | – | – | – | – | – | – | – | – | –
14 | Nc1ccccc1Nc1ccccc1C(=O)[O-].Nc1ccccc1Nc1ccccc1C(=O)[O-].[Zn+2] | – | > 100 | > 100 | > 100 | > 100 | > 100 | > 100 | > 100 | – | – | – | – | – | – | – | – | – | – | – | –
15 | CCOc1ccc2nc3nc(=O)[nH]c(C)c3c(NCCCN(CC)CC)c2c1 | > 100 | > 100 | > 100 | – | > 100 | > 100 | > 100 | > 100 | > 100 | > 100 | – | – | – | – | – | – | – | – | – | –
16 | S=C(NNC1=NCCCCN1)Nc1ccc(Cl)cc1 | – | > 100 | 31.6 | > 100 | > 100 | > 100 | 57.5 | 93.1 | > 100 | > 100 | – | – | – | – | – | – | – | – | – | –
17 | CCN1CCCC(C#N)(c2ccccc2)CC1 (configuration not stated) | > 100 | > 100 | > 100 | > 100 | > 100 | > 100 | > 100 | > 100 | – | > 100 | – | – | – | – | – | – | – | – | – | –

Row | SMILES | TGI (DU-145 prostate) [µM] | TGI (SK-MEL-28 melanoma) [µM] | TGI (UO-31 renal) [µM] | TGI (RPMI-8226 leukemia) [µM] | TGI (IGROV1 ovarian) [µM] | TGI (OVCAR-5 ovarian) [µM] | TGI (SF-295 CNS) [µM] | TGI (SK-OV-3 ovarian) [µM] | TGI (NCI-H226 lung) [µM] | TGI (T-47D breast) [µM] | GI50 (SK-MEL-28 melanoma) [µM] | GI50 (RPMI-8226 leukemia) [µM] | GI50 (DU-145 prostate) [µM] | GI50 (UO-31 renal) [µM] | GI50 (NCI-H226 lung) [µM] | GI50 (T-47D breast) [µM] | GI50 (IGROV1 ovarian) [µM] | GI50 (OVCAR-5 ovarian) [µM] | GI50 (SF-295 CNS) [µM] | GI50 (SK-OV-3 ovarian) [µM]
18 | CCN(CC)Cc1cc(Nc2c3ccccc3nc3c2[nH]c2ccccc23)cc(CN(CC)CC)c1O | 7.99 | 5.3 | 4.62 | – | 3.29 | 9.21 | 2.88 | 17 | 6.01 | – | – | – | – | – | – | – | – | – | – | –
19 | C=C1CCCC2[C@](C)(CC3=C(Cl)C(=O)C=C(OC)C3=O)C(C)CC[C@]12C (some centres not stated) | 15.2 | 17 | 5.77 | 14.6 | 4.76 | 9 | 14 | 46.5 | 14.7 | – | – | – | – | – | – | – | – | – | – | –
20 | Cc1ccc(S(=O)(=O)CN2C(=O)C(c3ccccc3)(c3ccccc3)C23OC(c2ccc(Cl)cc2)=CC3=O)cc1 (configuration not stated) | > 10 | > 10 | > 10 | – | > 10 | > 10 | > 10 | > 10 | > 10 | > 10 | – | – | – | – | – | – | – | – | – | –
21 | COc1ccc(N=C2S/C(=N\C(=Nc3ccccc3)SCc3ccccc3)N(c3ccccc3)C2=Nc2ccc(OC)cc2)cc1 | – | > 100 | > 100 | > 100 | > 100 | – | – | – | > 100 | > 100 | – | – | – | – | – | – | – | – | – | –
22 | CC(=O)OCC(C)C1=C(OC(C)=O)C(=O)C2(C)C/C=C(/C)CC/C=C(\C)CCC(OC(C)=O)C(C)CCC12 (configuration not stated) | 36.7 | 33.8 | 31.2 | 35.3 | 48.3 | 25.4 | 31.3 | – | – | 89 | – | – | – | – | – | – | – | – | – | –
23 | C1=NCCN2CCN(CCN=Cc3ccccc3OCc3cccc(n3)COc3ccccc31)CC2 | 35.7 | > 50 | > 50 | 19.1 | 37.2 | 28.3 | 14.1 | > 50 | – | – | – | – | – | – | – | – | – | – | – | –
24 | NC(=S)N/N=C/c1nccc2ccccc12 | – | > 100 | 3.42 | > 100 | > 100 | > 100 | 2.03 | 8.52 | – | – | – | – | – | – | – | – | – | – | – | –
25 | Oc1cc(O)c2ccc(-c3ccc(O)c(O)c3)[o+]c2c1 | – | > 100 | > 100 | > 100 | > 100 | > 100 | – | > 100 | > 100 | – | – | – | – | – | – | – | – | – | – | –
26 | Clc1c(Cl)c(Cl)c2c(nnn2C2CCCO2)c1Cl (configuration not stated) | > 100 | – | – | – | > 100 | > 100 | > 100 | > 100 | > 100 | > 100 | – | – | – | – | – | – | – | – | – | –
27 | O=C1C(C(O)(C(F)(F)Cl)C(F)(F)Cl)CCCC1C(O)(C(F)(F)Cl)C(F)(F)Cl (configuration not stated) | > 10 | > 10 | – | – | > 10 | > 10 | > 10 | > 10 | > 10 | > 10 | – | – | – | – | – | – | – | – | – | –
28 | O=P1(Oc2ccccc2)N=P(c2ccccc2)(c2ccccc2)C=C(c2ccc(Cl)cc2)N1 (configuration not stated) | 26.9 | – | 25.8 | 9.55 | 26.5 | 28.2 | 19.8 | 26 | – | 24.7 | – | – | – | – | – | – | – | – | – | –
29 | CC(=O)C1C(=O)C(=O)N(c2ccccc2)C1=O (configuration not stated) | > 100 | > 100 | > 100 | – | > 100 | > 100 | > 100 | > 100 | > 100 | – | – | – | – | – | – | – | – | – | – | –
30 | CC(=O)OC1CC2CCN3C(=O)c4cc5c(cc4[C@H](C1OC(C)=O)C23)OCO5 (some centres not stated) | – | > 100 | > 100 | > 100 | > 100 | – | > 100 | > 100 | > 100 | – | – | – | – | – | – | – | – | – | – | –
31 | NC1=NC2=c3ccccc3=C(c3cnccn3)C2(c2cnccn2)c2ccccc21 (configuration not stated) | – | > 100 | > 100 | > 100 | > 100 | > 100 | > 100 | > 100 | > 100 | – | – | – | – | – | – | – | – | – | – | –
32 | c1ccc(N2N=C(c3cccc(Nc4ccncc4)c3)CC2c2ccc3c(c2)OCO3)cc1 (configuration not stated) | 3.66 | 3.14 | 2.84 | – | 3.6 | 4.85 | 3.51 | 10.2 | 5.05 | 5.12 | 1.66 | – | 1.85 | 1.4 | 2.07 | 2.1 | 1.7 | 2.06 | 1.87 | 2.73
33 | COc1cc(C(=O)/C=C/c2ccc(OCCSCCCCCCCCCCSCCOc3ccc(/C=C/C(=O)c4cc(OC)c(OC)c(OC)c4)cc3)cc2)cc(OC)c1OC | > 100 | > 100 | > 100 | > 100 | > 100 | > 100 | > 100 | – | – | > 100 | – | – | – | – | – | – | – | – | – | –
34 | COC(=O)[C@H](Cc1ccccc1)NC(=O)/C(=C/C(C)C)NC(=O)[C@H](CCSC)NC=O | – | > 100 | > 100 | > 100 | > 100 | – | > 100 | > 100 | > 100 | – | – | – | – | – | – | – | – | – | – | –
